# From patent US6362181B1, “Isoquinolones” (Warner-Lambert Company, priority 1996, dated 2002)
# Where two headings read alike, the source gives them in different places.
# Tests used:
# B. subtilis RB1 = assay: Antibacterial assay, standard microtitration, MIC; format: cell-based; details: Gram positive; for MIC: Bacillus subtilis, read-out: Minimum Inhibitory Concentrations, B. subtilis RB1
# Experimental: (§1) The compounds of the present invention were tested against an assortment of gram negative and gram positive organisms using standard microtitration techniques (Cohen, et al., Antimicrob. Agents Chemother., 1985;28:766; Heifetz, et al. Antimicrob. Agents Chemother., 1974;6:124).
# E. coli B90 = assay: Antibacterial assay, standard microtitration, MIC; format: cell-based; details: Gram negative; for MIC: Escherichia coli, read-out: Minimum Inhibitory Concentrations, E. coli B90
# Experimental: as §1
# S. aureus 29213 = assay: Antibacterial assay, standard microtitration, MIC; format: cell-based; details: Gram positive; for MIC: Staphylococcus aureus, read-out: Minimum Inhibitory Concentrations, S. aureus 29213
# Experimental: as §1
# S. pyogenes C203 = assay: Antibacterial assay, standard microtitration, MIC; format: cell-based; details: Gram positive; for MIC: Streptococcus pyogenes, read-out: Minimum Inhibitory Concentrations, S. pyogenes C203
# Experimental: as §1
# E. coli MC4100 = assay: Antibacterial assay, standard microtitration, MIC; format: cell-based; details: Gram negative; for MIC: Escherichia coli, read-out: Minimum Inhibitory Concentrations, E. coli MC4100
# Experimental: as §1
# E. coli To1C = assay: Antibacterial assay, standard microtitration, MIC; format: cell-based; details: for MIC: Escherichia coli, TO1C, read-out: Minimum Inhibitory Concentrations, E. coli To1C; for Minimum Inhibitory Concentrations, E. coli To1C: Gram negative
# Experimental: as §1
# E. coli gyrase = target: T1, E. coli gyrase (Escherichia coli, UniProt P0AES4+P0AES6); assay: DNA gyrase supercoiling inhibition assay; format: biochemical
# T1 construct: purchased Lucent, Ltd., Leicester, UK
# T1 sequence (P0AES4 whole entry, one chain of several): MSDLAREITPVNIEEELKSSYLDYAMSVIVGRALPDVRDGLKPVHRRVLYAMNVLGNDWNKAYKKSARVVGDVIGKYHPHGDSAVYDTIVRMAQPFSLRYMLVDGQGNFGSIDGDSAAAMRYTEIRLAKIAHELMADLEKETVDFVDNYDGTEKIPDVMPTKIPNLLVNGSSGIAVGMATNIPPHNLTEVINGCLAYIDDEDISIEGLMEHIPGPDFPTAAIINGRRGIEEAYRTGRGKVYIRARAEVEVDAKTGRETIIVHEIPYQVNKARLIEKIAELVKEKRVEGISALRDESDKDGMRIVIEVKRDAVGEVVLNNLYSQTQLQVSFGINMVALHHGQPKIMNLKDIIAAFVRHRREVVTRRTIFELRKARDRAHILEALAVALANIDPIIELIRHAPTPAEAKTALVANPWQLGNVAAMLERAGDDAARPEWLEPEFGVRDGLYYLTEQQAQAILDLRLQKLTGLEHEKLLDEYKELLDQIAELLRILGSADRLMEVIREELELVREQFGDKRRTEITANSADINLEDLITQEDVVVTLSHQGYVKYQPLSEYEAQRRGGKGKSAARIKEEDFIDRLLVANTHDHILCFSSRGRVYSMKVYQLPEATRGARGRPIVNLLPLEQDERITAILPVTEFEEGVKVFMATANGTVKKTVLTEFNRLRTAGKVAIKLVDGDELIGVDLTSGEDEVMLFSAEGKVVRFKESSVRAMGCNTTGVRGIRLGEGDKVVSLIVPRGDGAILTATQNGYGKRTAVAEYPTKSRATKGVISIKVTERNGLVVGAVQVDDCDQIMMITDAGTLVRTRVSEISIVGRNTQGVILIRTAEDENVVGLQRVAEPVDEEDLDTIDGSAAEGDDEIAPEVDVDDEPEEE
# Experimental: The effects of test agents on the activity of DNA gyrase was determined by the supercoiling inhibition assay, following reaction conditions recommended by the enzyme supplier (Lucent, Ltd., Leicester, UK), as follows. Reactions were performed in buffer G (35 mM Tris-HCL (pH 7.5), 24 mM KCl, 4 mM MgCl2, 2 mM DTT, 1.8 mM spermidine, 1 mM ATP, 0.1 mg/mL bovine serum albumin). 0.25 μg of relaxed plasmid pBR322 (Lucent, Ltd., Leicester, UK) was reacted with 1 U E. coli gyrase (Lucent, Ltd., Leicester, UK), in the absence or presence of drugs, for 30 minutes at 37° C. Reactions were stopped by the addition of SDS and proteinase K to respective final concentrations of 1% and 0.5 mg/mL. After an additional 30 minutes at 37° C., one-tenth volume of 10×loading buffer (0.3% bromophenol blue, 16% Ficoll, 10 mM Na2HPO4) was added, and reactions were loaded onto agarose gels and electrophoresed as described above for intercalation assays. The concentration of drug inhibiting 50% of the supercoiling activity of DNA gyrase is given as an IC50 and recorded in Table 2.
# relaxed plasmid pBR322 = assay: DNA intercalation/binding assay; details: pBR322 with calf thymus topoisomerase I, 30 minutes at 37° C.; read-out: Drug Concentration causing 50% Intercalation of DNA
# Experimental: Compounds of the present invention were evaluated for their ability to intercalate/bind to DNA, using the procedure described in Nucleic Acids Research, 1987;15(15):6713. Specifically, 0.2 μg of relaxed plasmid pBR322 (Lucent, Ltd., Leicester, UK) was treated with 2 U of calf thymus topoisomerase I (Gibco/BRL, Gaithersburg, Md.) in buffer I (10 mM Tris-HCl (Ph 7.5), 50 mM KCl, 5 mM MgCl2, 1 mM Na2EDTA, 15 μg/mL bovine serum albumin) in the presence or absence of test compounds. Reaction were incubated for 30 minutes at 37° C.; volumes were typically 30 μL. Reactions were terminated by the addition of sodium dodecylsulfate (SDS) to 1% and proteinase K to 0.5 mg/mL final concentrations. After an additional 30 minutes at 37° C., one-tenth volume of 10×concentrated loading buffer (0.3% bromophenol blue, 16% Ficoll, 10 mM Na2HPO4) was added, and samples were loaded onto horizontal 0.8% agarose gels prepared in TAE buffer. Electrophoresis was at 22 V for 14 hours. Gels were then stained by soaking for 1.5 hours in deionized water containing 0.2 μg/mL of ethidium bromide, followed by destaining in deionized water for an additional 1.5 hours. Gels were examined and photographed following exposure to UV light. The concentration of the drug which induced a 50% change in the DNA by intercalation is represented by an intercalation IC50 and is recorded in Table 4.
# E. coli topoisomerase IV = target: T2, E. coli topoisomerase IV (Escherichia coli, UniProt P0AFI2+P20083); assay: Topoisomerase IV k-DNA decatenation assay; format: biochemical
# T2 construct: made in house; host or cells: E. coli overexpressing strains
# T2 sequence (P0AFI2 whole entry): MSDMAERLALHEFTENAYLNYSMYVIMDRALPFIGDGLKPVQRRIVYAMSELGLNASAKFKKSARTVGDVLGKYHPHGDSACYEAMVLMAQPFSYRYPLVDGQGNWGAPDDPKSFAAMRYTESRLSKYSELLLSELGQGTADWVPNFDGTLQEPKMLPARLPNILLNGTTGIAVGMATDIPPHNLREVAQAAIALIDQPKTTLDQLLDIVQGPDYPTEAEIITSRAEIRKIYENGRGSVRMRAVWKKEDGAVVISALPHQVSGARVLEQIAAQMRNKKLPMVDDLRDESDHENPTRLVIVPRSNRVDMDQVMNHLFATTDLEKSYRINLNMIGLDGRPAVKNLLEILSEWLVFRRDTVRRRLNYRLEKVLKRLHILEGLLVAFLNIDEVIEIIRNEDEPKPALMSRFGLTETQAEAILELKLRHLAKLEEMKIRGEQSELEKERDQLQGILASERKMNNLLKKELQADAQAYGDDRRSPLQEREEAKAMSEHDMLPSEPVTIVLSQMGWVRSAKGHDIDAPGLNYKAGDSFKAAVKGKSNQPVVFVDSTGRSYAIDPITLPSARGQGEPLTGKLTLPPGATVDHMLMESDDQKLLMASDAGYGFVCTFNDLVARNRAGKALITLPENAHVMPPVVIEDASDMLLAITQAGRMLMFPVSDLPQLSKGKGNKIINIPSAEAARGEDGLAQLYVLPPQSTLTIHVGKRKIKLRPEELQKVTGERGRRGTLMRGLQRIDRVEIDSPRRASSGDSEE
# T2 sequence (P20083 whole entry): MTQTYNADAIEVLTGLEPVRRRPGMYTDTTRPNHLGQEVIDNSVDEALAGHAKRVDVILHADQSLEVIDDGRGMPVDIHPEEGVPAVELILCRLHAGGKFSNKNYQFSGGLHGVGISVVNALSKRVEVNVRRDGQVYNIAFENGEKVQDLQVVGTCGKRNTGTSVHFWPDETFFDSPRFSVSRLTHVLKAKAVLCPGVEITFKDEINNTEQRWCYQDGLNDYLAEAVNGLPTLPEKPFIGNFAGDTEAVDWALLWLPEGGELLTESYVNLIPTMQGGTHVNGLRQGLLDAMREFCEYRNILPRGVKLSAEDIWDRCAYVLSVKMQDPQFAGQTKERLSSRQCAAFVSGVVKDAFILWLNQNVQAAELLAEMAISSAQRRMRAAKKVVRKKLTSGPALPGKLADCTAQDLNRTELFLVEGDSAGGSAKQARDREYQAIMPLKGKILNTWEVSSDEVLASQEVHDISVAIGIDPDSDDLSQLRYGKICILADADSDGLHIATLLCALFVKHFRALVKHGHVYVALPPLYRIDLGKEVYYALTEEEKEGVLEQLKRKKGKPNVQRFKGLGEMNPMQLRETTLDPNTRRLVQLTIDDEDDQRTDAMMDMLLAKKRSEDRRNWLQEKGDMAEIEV
# Experimental: Topoisomerase IV was purified from E. coli overexpressing strains and the compounds were assayed according to literature conditions (Journal of Biological Chemistry, 1993;268(32):24481). The k-DNA decatenation assay was used. Briefly, reactions were performed in buffer R (40 mM Tris-HCl (pH 7.5), 6 mM MgCl2, 10 mM DTT, 100 mM potassium glutamate, 40 μM ATP, 50 μg/mL bovine serum albumin, 10 mM NaCl). 0.2 μg of kinetoplast DNA (k-DNA; TopoGen, Columbus, Ohio) was incubated with 5 ng of E. coli topoisomerase IV in the presence or absence of test compounds for 10 minutes at 37° C. Subsequently, one-tenth volume of 10×gel loading buffer (0.3% bromophenol blue, 16% Ficoll, 10 mM Na2HPO4) was added, and samples were loaded onto horizontal 0.8% agarose gels prepared with TBE buffer and containing 0.05 μg/mL of ethidium bromide. Electrophoresis was at 70 V for 2 to 4 hours. Gels were then examined by exposure to UV light. The concentration of drug inhibiting 50% of the decantenating activity of Topoisomerase IV is given as an IC50 and recorded in Table 2.
# [1] = supercoiling of relaxed pBR322, 30 minutes at 37° C., read-out: DNA Gyrase IC50
# [2] = k-DNA decatenation, 10 minutes at 37° C., read-out: Top IV IC50
Compound,MIC (B. subtilis RB1),MIC (E. coli B90),MIC (S. aureus 29213),MIC (S. pyogenes C203),MIC (E. coli MC4100),MIC (E. coli To1C),IC50 (E. coli gyrase),IC50 (relaxed plasmid pBR322),IC50 (E. coli gyrase; [1]),IC50 (E. coli topoisomerase IV),"Minimum Inhibitory Concentrations, B. subtilis RB1 (B. subtilis RB1)","Minimum Inhibitory Concentrations, E. coli B90 (E. coli B90)","Minimum Inhibitory Concentrations, S. aureus 29213 (S. aureus 29213)","Minimum Inhibitory Concentrations, S. pyogenes C203 (S. pyogenes C203)","Minimum Inhibitory Concentrations, E. coli MC4100 (E. coli MC4100)","Minimum Inhibitory Concentrations, E. coli To1C (E. coli To1C)",IC50 (E. coli topoisomerase IV; read-out: Top IV IC50),melting point,IC50 (E. coli topoisomerase IV; [2])
NCC1CCN(c2c(Cl)cc3c4c(cccc24)C(=O)N(O)C3=O)C1 (centres unmarked) [Example 85],1 µg/mL,0.5 µg/mL,4 µg/mL,4 µg/mL,1 µg/mL,0.25 µg/mL,2.1 µM,–,–,–,–,–,–,–,–,–,–,–,–
"CN(C)CCN1C(=O)c2cccc3cc(N)cc(c23)C1=O [Amonafide, amonafide, reference compound]",64 µg/mL,16 µg/mL,128 µg/mL,4 µg/mL,64 µg/mL,–,–,< 10 µM,–,–,–,–,–,–,–,–,–,–,–
"O=C1c2ccc(N3CCCC3)c3cc(Br)cc(c23)C(=O)N1O [Example 59, 5-Bromo-2-hydroxy-7-(pyrrolidin-1-yl)-benzo[de]isoquinoline-1,3-dione]",0.5 µg/mL,0.06 µg/mL,1 µg/mL,> 64 µg/mL,2 µg/mL,0.06 µg/mL,–,> 100 µM,2.6 µM,–,–,–,–,–,–,–,–,–,–
"COc1cc2c3c(cccc3c1N)C(=O)N(O)C2=O [Example 30, 6-Amino-2-hydroxy-5-methoxy-benzo[de]isoquinoline-1,3-dione]",4 µg/mL,4 µg/mL,4 µg/mL,64 µg/mL,8 µg/mL,2 µg/mL,–,> 100 µM,–,–,–,–,–,–,–,–,–,–,–
"O=C1c2cccc3cc([N+](=O)[O-])cc(c23)C(=O)N1O [Example 1, 2-Hydroxy-5-nitro-benzo[de]isoquinoline-1,3-dione]",8 µg/mL,2 µg/mL,8 µg/mL,32 µg/mL,4 µg/mL,–,–,> 100 µM,–,–,–,–,–,–,–,–,–,–,–
CN1CCN(c2c(Cl)cc3c4c(cccc24)C(=O)N(O)C3=O)CC1 [Example 98],8 µg/mL,4 µg/mL,16 µg/mL,8 µg/mL,32 µg/mL,4 µg/mL,15.8 µM,19 µM,–,3 µM,–,–,–,–,–,–,–,–,–
CC1(CN)CCN(c2c(Cl)cc3c4c(cccc24)C(=O)N(O)C3=O)C1 (centres unmarked) [Example 89],1 µg/mL,1 µg/mL,1 µg/mL,2 µg/mL,4 µg/mL,0.5 µg/mL,5.5 µM,–,–,–,–,–,–,–,–,–,–,–,–
NC1CCN(c2ccc3c4c(cc(Cl)c(Cl)c24)C(=O)N(O)C3=O)C1.O=C(O)C(F)(F)F (centres unmarked) [Example 117],–,–,–,–,–,–,–,–,10 µM,–,2.0 µg/mL,0.5 µg/mL,8.0 µg/mL,8.0 µg/mL,2.0 µg/mL,0.25 µg/mL,4 µM,–,–
O=C1c2cccc3c(N4CCOCC4)c([N+](=O)[O-])cc(c23)C(=O)N1O [Example 81],8 µg/mL,8 µg/mL,32 µg/mL,> 64 µg/mL,> 64 µg/mL,8 µg/mL,19 µM,94 µM,–,–,–,–,–,–,–,–,–,272 to 274 °C,–
"Nc1ccc2c3c(cccc13)C(=O)N(O)C2=O [Example 7, 6-Amino-2-hydroxy-benzo[de]isoquinoline-1,3-dione]",16 µg/mL,4 µg/mL,8 µg/mL,> 64 µg/mL,4 µg/mL,4 µg/mL,–,> 100 µM,–,–,–,–,–,–,–,–,–,–,–
NC1CCN(c2c(Cl)cc3c4c(cc([N+](=O)[O-])cc24)C(=O)N(O)C3=O)C1.O=C(O)C(F)(F)F (centres unmarked) [Example 115],–,–,–,–,–,–,–,–,0.7 µM,–,2.0 µg/mL,0.5 µg/mL,>64 µg/mL,4.0 µg/mL,8.0 µg/mL,0.5 µg/mL,9 µM,–,–
"O=C1c2cccc3c([N+](=O)[O-])ccc(c23)C(=O)N1O [Example 2, 2-Hydroxy-6-nitro-benzo[de]isoquinoline-1,3-dione]",4 µg/mL,4 µg/mL,2 µg/mL,4 µg/mL,8 µg/mL,–,–,> 100 µM,–,–,–,–,–,–,–,–,–,–,–
"6-Hydroximino-2,5-dihydroxy-methyl-benzo[de]isoquinoline-1,3-dione [Example 120]",–,–,–,–,–,–,–,–,30 µM,–,>64 µg/mL,2.0 µg/mL,16 µg/mL,64 µg/mL,>64 µg/mL,1.0 µg/mL,–,–,25 µM
"O=C1c2cccc3c4c(cc(c23)C(=O)N1O)OCO4 [Example 122, 2-Hydroxy-5,6-methylenedioxy-benzo[de]isoquinoline-1,3-dione]",2 µg/mL,0.5 µg/mL,8 µg/mL,> 64 µg/mL,2 µg/mL,0.5 µg/mL,–,> 100 µM,19 µM,–,–,–,–,–,–,–,–,–,–
"O=C1c2cccc3cc(F)cc(c23)C(=O)N1O [Example 11, 5-Fluoro-2-hydroxy-benzo[de]isoquinoline-1,3-dione]",8 µg/mL,2 µg/mL,64 µg/mL,> 64 µg/mL,8 µg/mL,–,–,> 100 µM,–,–,–,–,–,–,–,–,–,–,–
"Nc1c(Br)cc2c3c(cccc13)C(=O)N(O)C2=O [Example 26, 6-Amino-5-bromo-2-hydroxy-benzo[de]isoquinoline-1,3-dione]",0.5 µg/mL,0.25 µg/mL,2 µg/mL,> 64 µg/mL,0.5 µg/mL,–,–,> 100 µM,7 µM,–,–,–,–,–,–,–,–,–,10 µM
Nc1cc2c3c(cccc3c1N1CCCCC1)C(=O)N(O)C2=O [Example 71],2 µg/mL,4 µg/mL,2 µg/mL,16 µg/mL,> 64 µg/mL,4 µg/mL,–,–,–,–,–,–,–,–,–,–,–,244 to 248 °C,–
"O=C1c2cccc3c(Cl)c(Cl)cc(c23)C(=O)N1O [Example 103, 5,6-Dichloro-2-hydroxy-benzo[de]isoquinoline-1,3-dione]",1 µg/mL,0.5 µg/mL,16 µg/mL,> 64 µg/mL,16 µg/mL,0.5 µg/mL,–,26 µM,4.9 µM,–,–,–,–,–,–,–,–,–,19 µM
